Test results as given in patent US9034863B2, “Compositions and methods for inhibiting entry of a hepatic virus” (The Board of Trustees of the University of Illinois, priority 2008, dated 2015).

What was measured:
HCVcc = assay: Steady-state HCVcc RNA levels in chronically infected Huh7 cultures, 24-96 h; assay type: cell-based, Hepatitis C virus (HCV); settings: 30 μM, 24-96 hours post-treatment
Description: Huh7 cultures were inoculated with HCVcc at an MOI of 0.01 FFU cell-1. Infected cultures were maintained for an additional 10 days to allow HCV RNA to reach steady-state levels. Cultures were then vehicle-treated, treated with ezetimibe (30 μM) or 2′-C-methylcytidine (12.5 μM). Fresh medium containing the specified treatments was replenished every day throughout the course of the experiment. Intracellular RNA was collected from triplicate wells at 24, 48, 72 and 96 hours post-treatment and HCV RNA was quantified by RT-qPCR and normalized to GAPDH.

Dengue virus (DNV) = assay: Dengue virus plaque formation; assay type: cell-based; settings: 12.5 or 25 μM
Description: To ensure that the inhibition observed was not due to ezetimibe-induced changes in cell proliferation or cytotoxicity, cellular ATP was measured as a read-out of Huh7 cell viability and proliferation and cellular toxicity by adenylate kinase release following treatment with increasing doses of ezetimibe. […] Furthermore, to test the specificity of the observed HCV inhibition, the effect of ezetimibe on entry of another flavivirus, Dengue virus (DNV), was assessed.

HCVcc JFH-1 [1] = assay: HCV binding versus internalization, cell-associated HCV RNA (FIG. 1); assay type: cell-based, Hepatitis C virus (HCV)
Description: Monolayers of human hepatoma cell line Huh7 were inoculated with HCVcc JFH-1 (cell culture produced HCV JFH-1, which is a specific HCV clone isolated from a Japanese Fulminant Hepatitis patient) at an MOI of 0.1 FFU/cell for 6 hours in the presence or absence of increasing concentrations of ezetimibe. Cultures were washed extensively and cell associated RNA was collected 6 and 30 hours post-infection (p.i.) to determine the amount of bound and internalized virus, respectively. […] Results are graphed as means±s.e.m. for triplicate samples. The data presented are representative of three independent experiments. Assay background (i.e., HCV RNA level detected in uninfected samples) is equal to ˜0.5−1.0×10^2 copies/μg total cellular RNA. Significant reduction in HCV RNA levels relative to mock-treated cultures is denoted by a single asterisk (p<0.05, one-way ANOVA and Tukey's post hoc t test).
To decipher whether ezetimibe inhibits HCV cellular binding or subsequent internalization, cell-associated HCV RNA and protein in mock- and ezetimibe-treated HCVcc-infected cultures was examined.

HCVcc JFH-1 [2] = assay: Chronic HCVcc infection in growing Huh7 cells, long-term treatment, RT-qPCR (FIG. 2); assay type: cell-based, Hepatitis C virus (HCV); settings: alone, throughout ~70 days of treatment
Description: Cultures of growing Huh7 cells were inoculated with HCVcc JFH-1 at an MOT of 0.01 FFU/cell. Infected cultures were maintained for an additional 10 days to allow HCV RNA to reach steady-state levels. FIG. 2A, Cultures were mock treated, treated with ezetimibe alone (30 μM), IFN-α (100 U/ml) alone, or ezetimibe (30 μM) plus IFN-α (100 U/ml) in combination. Treatments were maintained as cultures were passaged. FIG. 2B, After 70 days IFN-α or combination ezetimibe plus IFN-α treatment, treatment was either continued (open shapes) or discontinued (filled shapes). […] Results are graphed as means±s.e.m. for triplicate samples. The data presented are representative of two independent experiments.
For experiments in growing cells, Huh7 cells seeded at 1×10^6 cells in a T75 cell culture flask (Corning) were infected with JFH-1 HCVcc at a MOI of 0.01 FFU/cell and subsequently cultured for 10 days to allow HCV RNA to reach steady-state levels. On day 10 post-infection, cells were split 1:4 and re-plated into T25 culture flasks (Corning). Twenty four hours post seeding, individual flasks were mock-treated with cDMEM or treated with cDMEM containing IFN-α (100 U/ml), ezetimibe (30 μM) or a combination of both IFN-α (100 U/ml) and ezetimibe (30 μM). Throughout the course of the experiment, fresh media with treatments was replenished every two days and cells were trypsinized just before reaching confluence and re-plated at a dilution of 1:3 to maintain active cell growth. […]
Total cellular RNA was purified using an ABI PRISM™ 6100 Nucleic Acid PrepStation (Applied Biosystems), as per the manufacturer's instructions. […] HCV JFH-1 and human GAPDH RNA transcript levels were determined relative to a standard curve derived from serial dilutions of plasmid containing the JFH-1 HCV cDNA or the human GAPDH coding sequence, respectively. […]
To confirm HCV clearance, drug treatments were subsequently discontinued on day 70 and HCV RNA levels were monitored for an additional 30 days.

For `O=C1[C@H](CC[C@H](O)c2ccc(F)cc2)[C@@H](c2ccc(O)cc2)N1c1ccc(F)cc1` [ezetimibe, 1-(4-fluorophenyl)-(3R)-[3-(4-fluorophenyl)-(3S)-hydroxypropyl]-(45)-(4-hydroxyphenyl)-2-azetidinone], the “steady state HCVcc RNA levels” value (HCVcc) was “did not inhibit steady state HCVcc RNA levels”, the “reduction in DNV plaque formation” value (Dengue virus (DNV)) was “no significant reduction” and the “virion binding (cell-associated HCV RNA)” value (HCVcc JFH-1 [1]; 6 hours p.i.) was “not binding”. The “HCV entry/internalization (HCV RNA expansion, de novo NS5A expression)” value (HCVcc JFH-1 [1]; later time points (30 hours p.i.)) was “inhibits HCV internalization” and the “intracellular HCV steady-state RNA levels” value (HCVcc JFH-1 [2]) was “did not reduce”.
